Results reported in US20220273759A1, “PHARMACEUTICAL ASSOCIATION FOR CONVERTING A NEOPLASTIC CELL INTO A NON-NEOPLASTIC CELL AND USES THEREOF” (HISTIDE AG, priority 2015, published 2022).
Where no end group is shown, it is not given here.

Legend:
[1] = tested on: mesenchymal chondrosarcoma cells; test: Recoding via quantification of pRB and P53, chondrosarcoma cells; format: cell-based; conditions: Table 6, peptide in association with PET
Procedure: (§1) The cells were first fixed for 20 min with 4% paraformaldehyde/PBS at 4° C. After fixation, the cells were permeabilized in PBS containing 1% Triton X-100 for 15 min. Protein immunofluorescent visualization was performed by first treating the cells with 1% (v/v) specific monoclonal antibodies for 1 hour at 37° C. Then the samples were incubated with Alexa Fluor® 568 or 647 (F(ab′)2 fragment of IgG(H+L)) during 30 min at room temperature. The cell nuclei were counterstained in 20 ng/mL DAPI for 10 min at room temperature.
(§2) For this type of quantification the freeware image analysis ImageJ® software was used. The raw image was first converted to an 8-bit file, and then the unsharp mask feature was used (settings 1:0.2) to remove the image background (rolling ball radius 10). After smoothing, the resulting image, which appears similar to the original photomicrograph but with minimal background, was then converted to a binary image by setting a threshold. Threshold values were determined empirically by selecting a setting, which gave the most accurate binary image for a subset of randomly selected photomicrographs. The cell area was determined by manual delineation on raw fluorescent images. Total contact area and mean contact area per cell were calculated by “analyse particules” in ImageJ®. A minimum of 50 cells per condition were analyzed. […]

[2] = tested on: human rhabdosarcoma cells; test: Recoding via quantification of pRB and P53, rhabdosarcoma cells; format: cell-based; conditions: Table 6, peptide in association with PET
Procedure: as §1, §2

Ras/MAP kinase = test: Adhesion checkpoint activation, western blot of ERK phosphorylation in osteosarcoma cells; format: cell-based; conditions: PET carrier, after 24 hours
Procedure: (§3) After 24 hours of culture, cells were permeabilized (10% SDS, 25 mM NaCl, 10 nM pepstatin and 10 nM leupeptin in distilled water and loading buffer), boiled for 10 minutes and resolved by reducing PAGE (Invitrogen). Proteins were transferred onto nitrocellulose, blocked, and labeled with HRP-conjugated antibodies (Invitrogen). […] Phosphor-Smad1/5/8 was blotted by treating the nitrocellulose with monoclonal anti-p-Smad1/5/8 (Santa Cruz Biotechnology). For all of the experiments the western blot was performed in triplicate, along with an additional blot for actin and coomassie blue staining to ensure constant protein load among samples.
(§4) Neoplastic cells (in this example osteosarcoma cells) were cultured on pharmaceutical associations comprising PET as a bioactive carrier and one of GFR-binding compounds of SEQ ID NO: 12, 19, 30 or 39. The main signaling pathways include: Ras/MAP kinase, FAK/Src kinase and PIP2 which are decreased after 24 hours as shown by western blot quantifications (FIG. 8). […] Finally, a decrease of 3-phosphoinositide-dependent protein kinase 1 (PDK1) protein expression was also was observed (FIG. 8C).

[3] = Adhesion checkpoint activation, western blot of PDK1 in osteosarcoma cells; format: cell-based; conditions: PET carrier, after 24 hours
Procedure: as §3, §4

Paxillin = Paxillin gene expression by RT-PCR in osteosarcoma cells; format: cell-based; conditions: PET carrier, after 24 hours
Procedure: (§5) After 24 hours of culture, total RNA was extracted by using the RNeasy total RNA kit (Qiagen®) according to the manufacturer's instructions. Purified total RNA was used as a template in order to make cDNA by a reverse transcription reaction (Gibco Brl®) with random primers (Invitrogen®). The cDNA was then used as a template for a real-time PCR amplification in the presence of SYBR green reagents (Bio-Rad®) by using a thermocycler (iCycler, Biorad®). Data were analyzed with the iCycler IQ™® software and compared by the ΔΔCt method. Briefly, the mean Ct value of the target gene was normalized to its averaged Ct values of the housekeeping gene (GAPDH) to give a ΔCt value, which was then normalized to a control sample to obtain a ΔΔCt value. The results were obtained from two series of experiments performed in triplicate.
(§6) Neoplastic cells (in this example osteosarcoma cells) were cultured on pharmaceutical associations comprising PET as a bioactive carrier and one of GFR-binding compounds of SEQ ID NO: 12, 19, 30 or 39. After 24 hours, the Paxillin and Vinculin gene expression decreased as shown by RT-PCR (FIG. 9).

Vinculin = Vinculin gene expression by RT-PCR in osteosarcoma cells; format: cell-based; conditions: PET carrier, after 24 hours
Procedure: as §5, §6

[4] = tested on: Cyclin D (Cyclin D1, Cyclin D2 and Cyclin D3); test: Cyclin D profile by RT-PCR in osteosarcoma cells; format: cell-based; conditions: PET carrier, after the first 30 min of cell culture
Text: There are many ways to test, measure and represent the inhibitory effect of a given substance on the gene or protein expression of cyclins D, but for the purpose of the present disclosure, and for the avoidance of any doubts, the inhibition values of a given pharmaceutical association or composition as defined herein is a measure of the gene expression of cyclins D as provided by RT-PCR. It is to be understood that the values of the gene expression of cyclins D disclosed herein correspond to the total gene expression of all cyclins D present in the tested cell i.e. D1, D2 and D3 as known at the date of the present disclosure.
as §5
Neoplastic cells (in this example osteosarcoma cells) were cultured on pharmaceutical associations comprising PET as a bioactive carrier and one of GFR-binding compounds of SEQ ID NO: 12, 19, 30 or 39. […]

[5] = Stability of non-covalent association (release of FITC-labelled GFR-binding compound from carrier); format: physicochemical; conditions: after 3, 7 or 10 days
Procedure: Non-covalent associations of the bioactive carriers were performed under atmospheric conditions (air) at room temperature (about 22° C.). The non-covalent association was carried out using a mixture of GFR-binding compound of SEQ ID NO: 9 (concentration of 1×10^−3 M) with the apatite ceramics or a mixture of GFR-binding compound of SEQ ID NO: 10 (concentration of 1×10^−3 M) with the type-I collagen sponge. The non-covalent pharmaceutical associations were characterized by covalently associating fluorescent GFR-binding compounds of SEQ ID NO: 9 and 10 (covalently bound to fluorescein isothiocyanate (FITC), FIG. 1).

[6] = tested on: neoplastic cells (osteosarcoma cells); test: Immunofluorescence visualization of neoplastic cells cultured on a polymer scaffold covalently modified with a GFR-binding compound and a RGD peptide; format: cell-based; conditions: polymer scaffold covalently modified with a mixture of GFR-binding compound and RGD peptide; after 24 hours of culture
Procedure: (b) Immunofluorescence visualization of a neoplastic cell (osteosarcoma cells) after silencing integrins α3β1 by using shRNAs, after 24 hours of culture on a polymer scaffold covalently grafted with RGD peptides. […] The actin filaments were immunostained by using Alexa 488-phalloidin. The focal adhesions were represented by immunostaining with anti-vinculin. The nucleus was stained with DAPI and is represented by a circle in the center of the cell. Scale bar: 5 μm. (c) Immunofluorescence visualization of neoplastic cells cultured on a polymer scaffold covalently modified with a mixture comprising a GFR-binding compound as defined herein (SEQ ID NO: 2) and a RGD peptide, after 24 hours of culture. Scale bar: 500 μm. […] The actin filaments were immunostained by using Alexa 488-phalloidin. The focal adhesions were represented by immunostaining with anti-vinculin. The nucleus was stained with DAPI and is represented by a circle in the center of the cell.

| Substance | P53 (%) [1] [%] | pRB (%) [1] [%] | P53 (%) [2] [%] | pRB (%) [2] [%] | also measured |
| --- | --- | --- | --- | --- | --- |
| GIPEPSSVSQELSATSMLYY (Non-cyclic GFR-binding peptide) [SEQ ID NO: 218] | 28 | 17 |  |  |  |
| RVPSTSSTQVDLNAISVLYF (Non-cyclic GFR-binding peptide) [SEQ ID NO: 217] |  |  | 24 | 18 |  |
| SEQ ID NO: 30: GFR-binding compound of the sequence listing, tested on PET as bioactive carrier; sequence not shown in this part (KIPKASSVPTELEPLPIVYY; Non-cyclic GFR-binding peptide) |  |  |  |  | phosphorylation at Thr202 and Tyr204 on ERK (Ras/MAP kinase): absence of phosphorylation; 3-phosphoinositide-dependent protein kinase 1 (PDK1) protein expression [3]: decrease; Paxillin gene expression (Paxillin): decreased; Vinculin gene expression (Vinculin): decreased; Cyclin D gene expression (arithmetic mean of Cyclin D1, D2 and D3) [4]: decreased |
| KIPKASSTPTRLSPISMLFI (Non-cyclic GFR-binding peptide) [SEQ ID NO: 221] | 37 | 21 |  |  |  |
| GIPEPSSVSQEESSLSTLFF (Non-cyclic GFR-binding peptide) [SEQ ID NO: 214] |  |  | 31 | 18 |  |
| SEQ ID NO: 9: GFR-binding compound of the sequence listing, non-covalently associated with apatite ceramics; sequence not shown in this part (AVPKASSAPTKLSAISMLYL; Non-cyclic GFR-binding peptide) |  |  |  |  | release of GFR-binding compounds from the carrier [5]: no significant release |
| SEQ ID NO: 2: GFR-binding compound as defined herein, covalently grafted on a polymer scaffold in a mixture with a RGD peptide (YVPKPSSAPTKLNAISTLYF; also: covalently grafted on a polymer scaffold) |  |  |  |  | morphology of neoplastic cells (immunofluorescence: actin, vinculin, DAPI) [6]: Spheroid-like structures of neoplastic cells become predominant |
| KIPKASSTQVRLRPVQIRKI (Non-cyclic GFR-binding peptide) [SEQ ID NO: 211] |  |  | 42 | 19 |  |
| SEQ ID NO: 12: GFR-binding compound of the sequence listing, tested on PET as bioactive carrier; sequence not shown in this part (KVPKASSVPTELSAISTLYL; Non-cyclic GFR-binding peptide) |  |  |  |  | phosphorylation at Thr202 and Tyr204 on ERK (Ras/MAP kinase): absence of phosphorylation; 3-phosphoinositide-dependent protein kinase 1 (PDK1) protein expression [3]: decrease; Paxillin gene expression (Paxillin): decreased; Vinculin gene expression (Vinculin): decreased; Cyclin D gene expression (arithmetic mean of Cyclin D1, D2 and D3) [4]: decreased |
| STPPTSSVPTEVSPINTLYF (Non-cyclic GFR-binding peptide) [SEQ ID NO: 224] | 26 | 13 |  |  |  |
| SEQ ID NO: 39: GFR-binding compound of the sequence listing, tested on PET as bioactive carrier; sequence not shown in this part (KIPKASSVPTELEPLPILYF; Non-cyclic GFR-binding peptide) |  |  |  |  | phosphorylation at Thr202 and Tyr204 on ERK (Ras/MAP kinase): absence of phosphorylation; 3-phosphoinositide-dependent protein kinase 1 (PDK1) protein expression [3]: decrease; Paxillin gene expression (Paxillin): decreased; Vinculin gene expression (Vinculin): decreased; Cyclin D gene expression (arithmetic mean of Cyclin D1, D2 and D3) [4]: decreased |
| KIPKASSTQVGQSATSILYY (Non-cyclic GFR-binding peptide) [SEQ ID NO: 219] | 31 | 14 |  |  |  |
| STPPTSSSRVQLSAISMLYL (Non-cyclic GFR-binding peptide) [SEQ ID NO: 212] |  |  | 27 | 11 |  |
| GIPEPSSAPTRLEPISMLYL (Non-cyclic GFR-binding peptide) [SEQ ID NO: 222] | 36 | 8 |  |  |  |
| RVPSTSSTQVKMSAISMLYL (Non-cyclic GFR-binding peptide) [SEQ ID NO: 213] |  |  | 26 | 12 |  |
| AASKASSTPTDLNAISTLYF (Non-cyclic GFR-binding peptide) [SEQ ID NO: 216] |  |  | 27 | 19 |  |
| AASKASSSRVELRSVKIAKV (Non-cyclic GFR-binding peptide) [SEQ ID NO: 210] |  |  | 42 | 22 |  |
| KIPKASSVSQQLEPISTLYL (Non-cyclic GFR-binding peptide) [SEQ ID NO: 223] | 29 | 9 |  |  |  |
| KIPKASSSRVRLSSLSTLFF (Non-cyclic GFR-binding peptide) [SEQ ID NO: 215] |  |  | 30 | 19 |  |
| SEQ ID NO: 10: GFR-binding compound of the sequence listing, non-covalently associated with type-I collagen sponge; sequence not shown in this part (KVGKASSVPTKLSAISTLYL; Non-cyclic GFR-binding peptide) |  |  |  |  | release of GFR-binding compounds from the carrier [5]: no significant release |
| SEQ ID NO: 19: GFR-binding compound of the sequence listing, tested on PET as bioactive carrier; sequence not shown in this part (RKIPKAGGVPTELSAISTLYL; Non-cyclic GFR-binding peptide) |  |  |  |  | phosphorylation at Thr202 and Tyr204 on ERK (Ras/MAP kinase): absence of phosphorylation; 3-phosphoinositide-dependent protein kinase 1 (PDK1) protein expression [3]: decrease; Paxillin gene expression (Paxillin): decreased; Vinculin gene expression (Vinculin): decreased; Cyclin D gene expression (arithmetic mean of Cyclin D1, D2 and D3) [4]: decreased |
| STPPTSSAPVGQSPISMLYI (Non-cyclic GFR-binding peptide) [SEQ ID NO: 220] | 34 | 15 |  |  |  |
